Square brackets hold non-standard residues; d marks the D form. Peptide text beside a SMILES is read from it. * marks the point of attachment. Nle = CCCC[C@H](N)C(=O)O; Cbz = O=C(OCc1ccccc1)*
Columns and labels:
[1] = tested on: human 293T tumor cells expressing V-GFP-TfR-OVA fusion; experiment: Western blot of fusion protein with anti-GFP antibody; format: cell-based; details: for full-length and short fragments of fusion proteins: 10 mM 3-MA, 1 μM Velcade, 10 mM NH4Cl, compared to untreated control cells
Method: (§1) The autophagy inhibitor […] (3-MA) and the autophagy inducer rapamycin were used to modulate autophagy and observe their effect on human 293T tumor cells expressing V-GFP-TfR-OVA fusion (a peptide containing mutated ubiquitin, GFP (green fluorescent protein), the transmembrane domain of transferrin receptor and chicken ovalbumin). In addition 10 mM NH4Cl was used to inhibit lysosome mediated protein degradation. Cells expressing V-GFP-TfR-OVA were either untreated, treated with 10 mM 3-MA for 24 hours, treated with 10 mM 3-MA and 1 μM Velcade for 24 hours, 50 nM rapamycin for 24 hours, 50 nM rapamycin and 1 μM Velcade for 24 hours, 10 mM NH4Cl for 24 hours, or with 1 μM Velcade and 10 mM NH4Cl for 24 hours. Cell lysates were prepared by resuspending pelleted cells in SDS containing sample lysis buffer and subjected to western blot analysis with anti-GFP antibody.

[2] = tested on: 293T tumor cells; experiment: Fluorescence microscopy of GFP-OVA / GFP-LC3 transfected cells; format: cell-based, human; details: 1 μM
Method: 293T tumor cells were transfected with plasmids encoding Ub-M-GFP-OVA, GFP-LC3 fusion protein, or GFP-LC3 and tdTomato-Ub proteins. Transfected cells were treated with 1 μM Velcade 24 hours later. GFP-OVA or GFP-LC3 fusion proteins were used to visualize the antigens or autophagy membrane in the DRibbles using fluorescence microscopy. Co-tranfection of GFP-LC3 and tdTomato-Ub fusion plasmids was used to visualize accumulation of ubiquitinated DRiPs inside LC3 decorated DRibbles.

[3] = tested on: LC3; experiment: Western blot analysis of LC-3 (autophagy marker); format: cell-based, human; details: 1 μM overnight, 293T cells
Method: To confirm whether Velcade induced autophagy, Western blot analysis of LC-3 was performed. LC3 is an autophagy marker; it converts from its LC3-I-nonlipidated form to the PE-conjugated form LC3-II. 293T were treated with 1 μM Velcade overnight and total cell lysates were subjected to Western blot analysis with anti-LC3 polyclonal antibody.

[4] = tested on: 293T cell lines expressing GFP-OVA fusion proteins; experiment: Western blot of DRibble lysates; format: cell-based, human
Method: Lysates (10 μg) were prepared from DRibbles generated from 293T cell lines expressing different versions of GFP-OVA fusion proteins after Velcade treatment. The lysates were probed with antibodies against GFP, LC3, calrecticulin, HSP90α (cytosolic), and ubiquitin.

[5] = tested on: 293T cells expressing V-GFP-TfR-OVA fusion protein; experiment: Western blot of fusion protein after HSP90 inhibitor and Velcade; format: cell-based, human; details: 1 μM Velcade 6 hours; 10 μM 17-AAD 16 hour
[6] = tested on: 293T cells expressing V-GFP-TfR-OVA fusion protein; experiment: Cross-presentation of HSP90 inhibitor treated cells; format: cell-based, human; details: Velcade added to 17-AAD treated cells
Method: (§2) 293T tumor cells expressing V-GFP-TfR-OVA were treated as described in Example 2, and used as the source of antigens for cross-presentation in vitro after irradiation (15,000 rad). One million tumor cells were incubated with two million DC for 6 hours before the addition of CFSE labeled naïve T cells from OT-I transgenic mice that recognize peptides derived from OVA protein. The OT-I division as indicated by dilution of CFSE label was used as the readout.
Cross-presentation is analyzed as described in Example 5.

[7] = tested on: RMA tumor cells; experiment: Priming of gag-specific CD8 T cells by RMA tumor cells, intracellular IFN-γ; format: in vivo, mice; details: RMA cells treated 5 μM 24 hours
Method: Seven days later, spleen cells were restimulated with either irrelevant D^b binding peptide or the dominant epitope of gag in the presence of blocker of ER/Golgi (brefeldin A) for 6 hours. The percentage of CD8 T cells produced intracellular IFN-γ was then determined by intracellular staining and flow cytometry analysis with antibodies against CD3, CD8, and IFN-γ.

[8] = tested on: 293T tumor cells expressing V-GFP-TfR-OVA; experiment: In vitro cross-presentation of treated tumor cells by DC to OT-I T cells (CFSE dilution); format: cell-based, human; details: tumor cells treated as in Example 2, irradiated; FIG. 3
Method: as §1, §2

[9] = tested on: F10 melanoma cells; experiment: Secretion of DRibbles by tumor cells treated with proteasome inhibitor (microscopy); format: cell-based, mouse; details: 5 μg/ml, 24 hours; FIG. 1A
Method: To prepare tumor-derived DRibbles, one T-150 flask of cultured tumor cells at about 80% confluence (about 30 million cells per flask) were treated for 24 hours with reversible proteasome inhibitor MG132 (5 μg/ml) or ALLN (5 μg/ml) to block proteasome-mediated degradation of ubiquitinated proteins. […] Culture supernatant was collected in a 50 ml conical tube 48 hours later, and whole tumor cells and large cell debris removed by a low speed centrifugation (250 g for 10 minutes) (FIG. 1B). The resulting supernatant was further centrifuged at a high speed (10,000 g for 15 minutes) to pellet DRibbles. The pellets (containing the DRibbles, see FIG. 1C) were washed once by re-suspending in PBS (20 ml) and pelleting at high speed as above. The washed pellets were resuspended in 300 μl PBS (10 μl DRibble=1 million cells) and snap frozen in liquid nitrogen and kept at −80° C. in small aliquots until use.

[10] = under refrigeration; cited from earlier work
[11] = oral administration; cited from earlier work

With `CC(C)C[C@H](NC(=O)[C@H](Cc1ccccc1)NC(=O)c1cnccn1)B(O)O` [Velcade, N-pyrazinecarbonyl-L-phenylalanine-L-leucineboronic acid] the “amount of short fragments” value ([1]; 1 μM Velcade in the presence of 50 nM rapamycin, 24 hours) was “slightly increased the amount of short fragments”, the “formation of punctate structures” value [2] was “led to formation of cell-associated punctate positive for GFP-OVA or GFP-LC3” and the “autophagy induction (LC3-I and LC3-II)” value [3] was “induced autophagy in 293T cells”. For the same compound, the “GFP-OVA fusion protein in DRibbles” value [4] was “resulted in large amount GFP-OVA fusion protein in the DRibbles”, the “short-fragments of GFP-TfR-OVA fusion proteins” value [5] was “dramatically increased” and the DRiPs and cross-presentation [6] was “rescued DRiPs but not cross-presentation”.

With `CC(C)C[C@@H](C=O)NC(=O)[C@H](CC(C)C)NC(=O)[C@H](CC(C)C)NC(=O)OCc1ccccc1` [MG-132, carbobenzyloxy-L-leucyl-L-leucyl-L-leucinal] (Cbz-Leu-Leu-Leu-aldehyde) the “percentage of IFN-γ-producing CD8 T cells, background” value ([7]; background) was 0.29% and the “percentage of IFN-γ-producing CD8 T cells” value ([7]; spleen cells seven days later restimulated with dominant epitope of gag) was 1.74%.

In the case of `Cl.N` [NH4Cl], the “full-length and short fragments of fusion proteins” value ([1]; 24 hours) is reported as “even greater stabilizing effect of shorter fragments”, the “antigen / protein level detected by Western blot” value ([1]; as restated with the cross-presentation results) is reported as “increased protein level” and the “cross-presentation (OT-I division, CFSE dilution)” value [8] is reported as “moderate increase of cross-presentation”.

With `CCCC[C@@H](C=O)NC(=O)[C@H](CC(C)C)NC(=O)[C@H](CC(C)C)NC(C)=O` [ALLN, N-Acetyl-Leu-Leu-norleucinal] (Ac-Leu-Leu-[Nle]-aldehyde) the “formation of prenuclear vacuoles and secretion of DRibbles” value [9] was “induced formation of prenuclear vacuoles and secretion of DRiPs containing blebs (DRibbles)”.

For `O.O=P1(N(CCCl)CCCl)NCCCO1` (stereo not shown) [Cyclophosphamide, 2-[bis(2-chloroethyl)amino]tetrahydro-2H-1,3,2 oxazaphosphorine 2-oxide monohydrate], the “stability of reconstituted solution” value [10] is listed as “six” and the bioavailability [11] is listed as “greater than 75%”.

In the case of `Cn1cnc(=N)c2ncn([C@@H]3O[C@H](CO)[C@@H](O)[C@H]3O)c21` [3-MA, 3-methyladenosine], the “full-length and short fragments of fusion proteins” value ([1]; 24 hours) is reported as “both full-length and short fragments of fusion proteins were increased” and the “cross-presentation (OT-I division, CFSE dilution)” value [8] is reported as “severely curtailed”.
